According to US20190247371A1, “METHODS FOR TREATING SMALL CELL LUNG CANCERS BY USING PHARMACEUTICAL COMPOSITIONS OR COMBINATIONS COMPRISING INDOLIZINO[6,7-B]INDOLE DERIVATIVES” (priority 2016, published 2019):
Read-outs that look alike come from different tables or passages of the source.

Key:
[1] = test system: H82 cells; assay: alamarBlue cytotoxicity assay, SCLC H82 cells; format: cell-based; conditions: read-out: IC50, concentration required to inhibit cell growth by 50%
Experimental: (§1) The inhibitory effect of BO-1978 on the cell growth of SCLC cell lines in vitro was examined. The cytotoxicity was assayed using alamarBlue® reagent (AbD Serotec) as previously described in U.S. Pat. No. 8,703,951 B2. In brief, H82, H211 and H526 cells were seeded to a 96 well plate with 5000, 1000 and 3000 cells per well, respectively, and incubated for 24 h. The growing cells were treated with BO-1978, cisplatin, etoposide or irinotecan at serial-diluted concentrations for 72 h at 37° C. An aliquot of alamarBlue® reagent (AbD Serotec) was added and the cultures were incubated for 5 h. The fluorescence at excitation 530 nm and emission 590 nm was read with a plate reader. The proliferation rate was calculated according to the manufacturer's instruction. The values of IC50 (50% inhibition concentration) for each compound were determined from dose-effect relationship using the CompuSyn software (Chou 2010^44).

[2] = test system: H211 cells; assay: alamarBlue cytotoxicity assay, SCLC H211 cells; format: cell-based; conditions: read-out: IC50, concentration required to inhibit cell growth by 50%
Experimental: as §1

[3] = test system: H526 cells; assay: alamarBlue cytotoxicity assay, SCLC H526 cells; format: cell-based; conditions: read-out: IC50, concentration required to inhibit cell growth by 50%
Experimental: as §1

[4] = test system: SCLC H526 cells; assay: SCLC H526 tumor xenograft model, single agents; format: in vivo; conditions: for body weight change: doses within MTD: BO-1978 40 mg/kg QD×5, etoposide 10 mg/kg Q2D×3, irinotecan 30 mg/kg QD×6, cisplatin 6 mg/kg Q4D×3, FIG. 2B
Experimental: H526 cells (1×10^7) were subcutaneously implanted into nude mice. […] Tumor size and body weight were taken at the time indicated. A, average tumor size changes; B, average body weight changes; and C, Kaplan-Meyer survival curves.
The animals used in this study were treated exactly according to the guidelines of the Academia Sinica Institutional Animal Care and Utilization Committee. Male athymic nude mice in 5 weeks of age were obtained from the National Laboratory Animal Center (Taipei, Taiwan) and housed for 1 week before performing experiments H526 cells (1×10^7) were subcutaneously implanted into nude mice (five groups, each 4 mice). […] Etoposide (10 mg/kg Q2D×3), irinotecan (30 mg/kg QD×6), and cisplatin (6 mg/kg Q4D×3) were used as the positive control and were administered as indicated.

[5] = test system: SCLC H211 cells; assay: Cell cycle analysis by flow cytometry, H211 cells; format: cell-based; conditions: 24, 48, 72 h, FIG. 9
Experimental: H211 cells were treated with various concentrations of (A) BO-1978, (B) BMN-673, or (C) BO-1978 plus BMN-673 at 24, 48, and 72 h. At the end of treatment, the cells were harvested by trypsinization, fixed in ice-cold ethanol, stained with propidium iodide, and subjected to cell cycle analysis with a flow cytometer.
In the present invention, the SCLC H211 cells were treated with the combination of BO-1978 and BMN 673 or HY-10130 for 72 h. Cell survival was analyzed by PrestoBlue Assay. The combination index (CI) was calculated using CompuSyn software (Chou 2006^61).

[6] = test system: SCLC H526 xenografts; assay: SCLC H526 xenograft, BO-1978 and irinotecan alone or in combination; format: in vivo, nude mice
Experimental: H526 cells (1×10^7) were subcutaneously implanted into nude mice. When tumor size reached 100-200 mm^3, BO-1978 and irinotecan, either alone or in combination were i.v. administered as indicated. Tumor size and body weight were taken at the time indicated A, tumor size; and B, body weight.
The mice (n=5) bearing SCLC H526 xenografts were treated with BO-1978 (alone, 40 mg/kg, Q2D×5), irinotecan (alone, 30 mg/kg, Q2D×5), and BO-1978 (40 mg/kg)+irinotecan (30 mg/kg) (Q2D×5) via iv inj.

[7] = test system: SCLC H211 cells; assay: SCLC H211 tumor xenograft model, single agents; format: in vivo, nude mice; conditions: same dosages and route as H526 study, FIG. 3
Experimental: H211 (3×10^6) were subcutaneously implanted into nude mice. When rumor size reached 100-200 mm^3, BO-1978, etoposide, irinotecan, and cisplatin were i.v. administered as indicated. Tumor size and body weight were taken at the time indicated. A, tumor size; and B, body weight.
In another experiment, the effect of BO-1978 on the inhibition of SCLC H211 cells, a fast growing cell line, was evaluated in xenograft model. Mice were treated with the tested compounds under the same dosages and administration route as described above.

[8] = test system: H526 cells; assay: alamarBlue combined treatment cytotoxicity, H526 cells; format: cell-based; conditions: co-treated with irinotecan at various ratios, 72 h, FIG. 4
Experimental: Cell survival was analyzed using alamarBlue assay. CI indicates combination index A, BO-1978 and cisplatin; B, BO-1978 and etoposide; and C, BO-1978 and irinotecan.
(§2) Combination therapy is therapy that uses more than one drug for therapy. […] The resulting combination index (CI) theorem of Chou-Talalay offers quantitative definition for additive effect (CI=1), synergism (CI<1), and antagonism (CI>1) in drug combinations (Chou 2010^44).

[9] = test system: H211 cells; assay: alamarBlue combined treatment cytotoxicity, H211 cells; format: cell-based; conditions: co-treated with irinotecan at various ratios, 72 h, FIG. 5
Experimental: H211 cells were seeded and treated with various concentrations of BO-1978, or therapeutic agents either alone or in combination for 72 h. Cell survival was analyzed using alamarBlue assay. CI indicates combination index. A, BO-1978 and cisplatin; B, BO-1978 and etoposide; and C, BO-1978 and irinotecan.
as §2

[10] = test system: SCLC H211; assay: SCLC H211 xenograft, BO-1978 and irinotecan alone or in combination; format: in vivo, nude mice
Text: H211 cells (3×10^6) were subcutaneously implanted into nude mice. When tumor size reached 100-200 mm^3, BO-1978 and irinotecan, cither alone or in combination were i.v. administered as indicated. Tumor size and body weight were taken at the time indicated. A, tumor size; and B, body weight.
In another experiment, the therapeutic efficacy of BO-1978 (alone) or in combination with irinotecan against SCLC H211 was investigated in xenograft models (FIG. 7). The H211 bearing mice (n=5) were administered with BO-1978 (alone, 40 mg/kg, QD×5), irinotecan (alone, 30 mg/kg, QD×5), and BO-1978 (40 mg/kg)+irinotecan (30 mg/kg) (QD×5) via iv inj.

[11] = test system: NSCLC cells; conditions: in vitro; cited from earlier work
[12] = test system: EGFR wild-type and mutant NSCLC tumors; conditions: cited from earlier work
[13] = preclinical toxicity studies; cited from earlier work
[14] = test system: PC9/gef B4 cells; conditions: cited from earlier work

Q: With `N.N.[Cl][Pt][Cl]` [Cisplatin, cis-diaminedichloroplatinum] as the molecule, how does the IC50 ([1]; H82, 72 h, mean ± S.D. of 3 independent experiments) read?
A: 340 ± 80 nM

Q: What about the IC50 ([2]; H211, 72 h, mean ± S.D. of 3 independent experiments) of the same molecule?
A: 570 ± 290 nM

Q: What about the IC50 ([3]; H526, 72 h, mean ± S.D. of 3 independent experiments) of the same molecule?
A: 660 ± 250 nM

Q: What about the “day mice were sacrificed because tumor size was over 2,500 mm^3” value [4] of the same molecule?
A: 35 days

Q: And the body weight change [4]?
A: did not cause body weight lost

Q: Which IC50 ([1]; Homo sapiens, NCI-H82, 72 h) does the source give for `COc1cc([C@@H]2c3cc4c(cc3[C@@H](O[C@@H]3O[C@@H]5CO[C@@H](C)O[C@H]5[C@H](O)[C@H]3O)[C@H]3COC(=O)[C@H]23)OCO4)cc(OC)c1O` [Etoposide] here?
A: 146 ± 2 nM

Q: And the IC50 ([2]; Homo sapiens, NCI-H211, 72 h)?
A: 70 ± 30 nM

Q: What about the IC50 ([3]; Homo sapiens, NCI-H526, 72 h) of the same molecule?
A: 50 ± 20 nM

Q: What about the “day mice were sacrificed because tumor size was over 2,500 mm^3” value [4] of the same molecule?
A: 35 days

Q: What about the body weight change [4] of the same molecule?
A: did not cause body weight lost

Q: What does the source list for `Cn1ncnc1[C@H]1c2n[nH]c(=O)c3cc(F)cc(c23)N[C@@H]1c1ccc(F)cc1` [BMN 673, (8S,9R)-5-Fluoro-8-(4-fluorophenyl)-9-(1-methyl-1H-1,2,4-triazol-5-yl)-2,7,8,9-tetrahydro-3H-pyrido[4,3,2-de]phthalazin-3-one, reference compound]?
A: effect on G2/M phase of cell cycle [5]: delayed the progression of the G2/M phase; subG1 cells (apoptotic death) [5]: did not induce subG1 cells

Q: With `CCc1c2c(nc3ccc(OC(=O)N4CCC(N5CCCCC5)CC4)cc13)-c1cc3c(c(=O)n1C2)COC(=O)[C@]3(O)CC` [Irinotecan] as the molecule, how does the IC50 ([1]; Homo sapiens, NCI-H82, 72 h) read?
A: 1200 ± 70 nM

Q: And the IC50 ([2]; Homo sapiens, NCI-H211, 72 h)?
A: 30 ± 10 nM

Q: And the IC50 ([3]; Homo sapiens, NCI-H526, 72 h)?
A: 1180 ± 570 nM

Q: And the “day mice were sacrificed because tumor size was over 2,500 mm^3” value [4]?
A: 45 days

Q: And the body weight change [4]?
A: did not cause body weight lost

Q: And the “day of tumor relapse” value ([6]; 30 mg/kg Q2D×5 iv)?
A: 15 days

Q: Which IC50 ([1]; Homo sapiens, NCI-H82, H82, 72 h, mean ± S.D. of 3 independent experiments) does the source give for `CCc1c(CO)c(CO)c2n1Cc1c(c3ccccc3n1C)C2` [BO-1978, [3-ethyl-6-methyl-6,11-dihydro-5H-indolizino[6,7-b]indole-1,2-diyl]dimethanol] here?
A: 350 ± 280 nM

Q: And the IC50 ([2]; Homo sapiens, NCI-H211, H211, 72 h, mean ± S.D. of 3 independent experiments)?
A: 148 ± 1 nM

Q: What about the IC50 ([3]; Homo sapiens, NCI-H526, H526, 72 h, mean ± S.D. of 3 independent experiments) of the same molecule?
A: 76 ± 26 nM

Q: What about the “therapeutic effect on tumor size” value ([4]; BO-1978 40 mg/kg QD×5 iv, FIG. 2A) of the same molecule?
A: more efficacious than etoposide, irinotecan and cisplatin

Q: What about the body weight change [4] of the same molecule?
A: did not cause body weight lost

Q: And the survival term ([4]; one out of 4 mice, FIG. 2C)?
A: > 430 days

Q: And the “inhibition of tumor growth” value [7]?
A: more potent than the drugs used for comparison

Q: What about the cytotoxicity of co-treatment [8] of the same molecule?
A: enhanced the cytotoxicity

Q: And the cytotoxicity of co-treatment [9]?
A: enhanced the cytotoxicity

Q: And the tumor growth suppression ([6]; 40 mg/kg Q2D×5 iv, n=5)?
A: significantly suppressed tumor growth

Q: What about the “mice with complete remission (CR)” value ([6]; day 14, Q2D×5 iv) of the same molecule?
A: 4/5

Q: And the “mice with tumor <100 mm3” value ([6]; day 14, Q2D×5 iv)?
A: 1/5

Q: And the “therapeutic efficacy, mono-drug comparison” value ([10]; 40 mg/kg QD×5 iv, n=5)?
A: more potent than irinotecan (alone)

Q: What about the “day of tumor relapse” value ([10]; QD×5 iv) of the same molecule?
A: 18 days

Q: And the “day tumor CR was seen” value ([10]; QD×5 iv)?
A: 14 days

Q: What about the “effect on G2/M phase of cell cycle” value [5] of the same molecule?
A: induced severe G2/M arrest

Q: And the “subG1 cells (apoptotic death)” value [5]?
A: appearance of the subG1 cells at high doses

Q: And the “cytotoxicity against cell growth of various NSCLC cells” value [11]?
A: significant cytotoxicity

Q: What about the body weight loss ([12]; xenograft and orthotopic lung tumor models) of the same molecule?
A: negligible body weight loss

Q: What about the “therapeutic efficacy in nude mice bearing NSCLC” value ([12]; xenograft and orthotopic models) of the same molecule?
A: potent therapeutic efficacy

Q: And the toxicity in mice [13]?
A: does not cause apparent toxicity

Q: And the “killing of cells with acquired gefitinib resistance” value [14]?
A: effectively kills
